Data taken from patent publication US8394816B2, “Methods of using [3.2.0] heterocyclic compounds and analogs thereof in treating Waldenstrom's Macroglobulinemia” (priority 2007, dated 2013).

Key:
[1] = Stability in solution; type: physicochemical; conditions: converted to compound VI-1B, mixture 7:3
Method: The compound of Formula I-16 (15 mg, 0.048 mmol) was dissolved in 1:1 ratio of ACN/DMSO (8 ml) in a scintillation vial (20 ml) to which triethylamine (40 μl, 0.29 mmol), Glutathione (44.2 mg, 0.144 mmol) and a magnetic stir bar were added. The reaction mixture was stirred at room temperature for about 3 hours. The solvent was evaporated from the reaction mixture to yield the compound of Formula I-48, which was purified by reversed phase HPLC using Ace 5u C18 column (150 mm×22 mm ID) with a solvent gradient of 10% to 70% H2O/Acetonitrile over 15 min, 70 to 100% Acetonitrile over 5 min, holding at 100% Acetonitrile for 4 min, at a flow rate of 14.5 ml/min. Diode array detector was used to monitor the purification process. Compound I-48 (10 mg) eluted as a pure compound at 8.255 min. Compound I-48: UV (Acetonitrile/H2O) λmax 235 (sh) nm; ESMS m/z 621.0 (M+H)^+. […] Compound VI-1B: UV (Acetonitrile/H2O) λmax 235 (sh) nm; ESMS, m/z 585.2 (M+H)^+.

[2] = tested on: p65 phosphorylation and p50NF-κB expression; assay: Fibronectin-induced NF-κB activity, western blotting of nuclear extracts; conditions: each agent 10 nM, 4 hours
Source text: Nuclear extracts were subjected to western blotting using anti-p-p65, -p50, and -nucleolin antibodies.

[3] = tested on: caspase-like (C-L) activity of the 20S proteasome; assay: 20S proteasome caspase-like activity in treated cells; type: cell-based; conditions: each agent 10 nM, 4 hours
[4] = tested on: WM; conditions: single agent, phase I trials; cited from earlier work
[5] = tested on: trypsin-like (T-L) activity of the 20S proteasome; assay: 20S proteasome trypsin-like activity in treated cells; conditions: 10 nM, 4 hours
[6] = tested on: Akt and STAT-3 phosphorylation; assay: IL-6-triggered Akt and STAT-3 phosphorylation, western blotting; type: cell-based; conditions: each agent 10 nM, 8 hours; IL-6 25 ng/mL 10 minutes
Method: Cells were then stimulated with IL-6 (25 ng/mL) for 10 minutes.
(§1) The effect of the two proteasome inhibitors on cytotoxicity of WM cells in the presence of IL-6 was also investigated. […] Whether the two proteasome inhibitors, used as single agent or in combination, could also target non-malignant hematopoietic cells was investigated.

[7] = tested on: BCWM.1 cells; assay: IL-6-induced proliferation, thymidine uptake; type: cell-based; conditions: salinosporamide A 2.5-20 nM, bortezomib 10 nM, IL-6 25 ng/mL
Method: Proliferation was assessed by thymidine uptake assay.
as §1

[8] = tested on: chymotrypsin-like (CT-L) activity of the 20S proteasome; assay: 20S proteasome chymotrypsin-like activity in treated cells; conditions: 10 nM, 4 hours
[9] = tested on: Akt; assay: In vitro Akt kinase assay; type: cell-based; conditions: each agent 10 nM
Source text: FIG. 4B is a picture showing In vitro Akt kinase assay. […] Whole cell lysates were immunoprecipitated with anti-Akt antibody. Then the immunoprecipitate was washed and subjected to in vitro kinase assay according to manufacturer's protocol. Western blotting used anti-p-GSK3α/β and anti-Akt antibodies.

[10] = tested on: BCWM.1 cells homing to the bone marrow; type: in vivo, BALB/c mice; conditions: single agents, cells pretreated; data not shown
Method: FIG. 6D is a graph showing in vivo flow cytometry. DiI-labeled treated cells and DiR-labeled untreated cells were injected in the tail vein of 2 BALB/c mice. Cells were counted every 5 min for 45 minutes as described in Material and Methods.
DI-labeled BCWM.1 cells treated with salinosporamide A (10 nM, 4 hours), alone or in combination with bortezomib (5 nM), or DiR-labeled untreated BCWM.1 cells used as control were injected in the tail vein of BALB/c mice, followed by in vivo flow cytometry every 5 minutes for 45 minutes after injection.

[11] = tested on: BCWM.1 cells; type: cell-based; conditions: for caspases-3, 8 and 9 cleavage: each agent 10 nM
Source text: To further dissect whether apoptosis is mediated through the intrinsic or extrinsic pathways, the effect of salinosporamide A, bortezomib and the combination on caspases-3, 8 and 9 was investigated.

[12] = tested on: Akt knockdown BCWM.1 cell line; assay: MTT cytotoxicity in Akt knockdown cell line; conditions: 2.5-20 nM, 48 hours
Method: BCWM.1 transfected cells or BCWM.1 control cells were treated with salinosporamide A (2.5-20 nM) for 48 hours. Cytotoxicity was assessed by MTT assay.

[13] = tested on: PBMCs from 3 healthy volunteers
[14] = tested on: PI3K/Akt signaling pathway in BCWM.1 cells; assay: Western blotting of PI3K/Akt signaling pathway; conditions: 2.5-20 nM, 6 hours
Source text: Whole cell lysate were subjected to Western blotting using anti-p-Akt, -Akt, -p-GSK3α/β, -p-S6R, -p-ERK, and -α-tubulin antibodies.

[15] = tested on: primary CD19+ cells isolated from three patients with WM; assay: tissue or blood; conditions: Homo sapiens, read-out: IC50, cytotoxicity in primary CD19+ cells (MTT)
Method: FIG. 1D is a graph showing freshly isolated bone marrow CD19^+ tumor cells from 3 patients with WM were cultured with salinosporamide A (2.5-40 nM [E]; 2.5-80 nM [F]). Cytotoxicity was assessed by MTT assay.

[16] = tested on: BCWM.1 cells; assay: cells
Method: (§2) FIG. 1A is a graph showing thymidine uptake assay and cytotoxicity assessed by MTT. BCWM.1 cells were cultured with salinosporamide A (2.5-40 nM) for 48 hours.
FIG. 2A is a graph showing BCWM.1 cells cultured with salinosporamide A (2.5, 5 and 10 nM) for 48 hours, in the presence or absence of bortezomib (5 and 10 nM). Cytotoxicity was assessed by MTT assay.
All experiments were repeated in triplicate.

[17] = tested on: WM-WSU, MEC-1, Namalwa; assay: MTT cytotoxicity assay, other IgM-secreting cell lines; type: cell-based; conditions: Homo sapiens, MEC1; 48 hours
[18] = tested on: BCWM.1 cells; assay: Transwell migration assay towards SDF-1; type: cell-based; conditions: each agent 10 nM, 4 hours; SDF-1 30 nM
Source text: Cells were then subjected to migration as previously described in Alsayed Y, Ngo H, Runnels J., et al. Mechanisms of regulation of CXCR4/SDF-1 (CXCL12)-dependent migration and homing in multiple myeloma. Blood.

[19] = tested on: BMSCs
[20] = tested on: BCWM.1 cells; assay: Apo2.7 staining apoptosis, flow cytometry; type: cell-based; conditions: 48 hours, untreated 5%
Method: FIG. 1E is a graph showing BCWM. 1 cultured with salinosporamide A for 48 hours at doses that range from 2 to 30 nM and the percentage of cells undergoing apoptosis was studied by Apo2.7 staining.
The molecular mechanisms whereby salinosporamide A induces cytotoxicity in WM cells was examined.

[21] = tested on: BCWM.1 cells; assay: [3H]-thymidine uptake proliferation assay; type: cell-based; conditions: BCWM1; BCWM.1, 48 hours; read-out: IC50, inhibition of proliferation ([3H]-thymidine uptake)
Method: as §2
WM and IgM-secreting cell lines were cultured for 48 hours in the presence of salinosporamide A (Formula I-16) (2.5-40 nM).

[22] = tested on: BCWM.1 cells adherent to BMSCs; assay: [3H]-TdR uptake in co-culture with BMSCs; type: cell-based; conditions: salinosporamide A 2.5-20 nM, bortezomib 10 nM, 48 hours
Method: Whether salinosporamide A, alone or in combination with bortezomib, inhibits WM cells growth in the context of the BM milieu was investigated. BCWM.1 cells were cultured with salinosporamide A (2.5-20 nM) and/or bortezomib (10 nM) in the presence or absence of BMSCs, for 48 hours.

[23] = tested on: BM hematopoietic progenitor cells; assay: Colony-forming cell assay; conditions: salinosporamide A 10 nM, 20 nM; bortezomib 10 nM; day 14
Source text: FIG. 5D is a graph showing colony-forming cell assay. […] All experiments have been done in triplicate.
as §1

[24] = tested on: NF-κBp65; assay: NF-κBp65 DNA binding activity (Active Motif assay), TNF-α stimulated; type: cell-based; conditions: each agent 10 nM, 4 hours; TNF-α 10 ng/mL last 20 minutes
Method: FIG. 3A is a graph showing BCWM.1 cells cultured with either salinosporamide A (10 nM), bortezomib (10 nM), or the combination for 4 hours, then human TNF-α (10 ng/mL) was added for the last 20 minutes. NF-κBp65 transcription factor-binding to its consensus sequence on the plate-bound oligonucleotide was studied from nuclear extract. Wild type and mutant are wild type and mutated consensus competitor oligonucleotides, respectively. All results represent means (±sd) of triplicate experiments.
The effect of salinosporamide A either alone or in combination with bortezomib on the NF-κBp65 DNA binding activity was investigated, studying nuclear extracts from treated cells using the Active Motif assay. […] Phospho-p65 translocation from the cytoplasmic compartment to the nucleus was inhibited by the combination of bortezomib and salinosporamide A, resulting in a significant increase in p-p65 expression in the cytoplasmic compartment as shown by immunofluorescence (FIG. 3D).

[25] = tested on: WM-WSU, MEC-1, Namalwa; assay: [3H]-thymidine uptake assay, IgM-secreting cell lines; type: cell-based; conditions: Homo sapiens, MEC1, 48 hours, read-out: IC50, [3H]-thymidine uptake, all cell lines tested
Method: FIG. 1B is a graph showing thymidine uptake assay.
WM and IgM-secreting cell lines were cultured for 48 hours in the presence of salinosporamide A (Formula I-16) (2.5-40 nM). […]

C[C@]1(O)[C@@H](CCCl)C(=O)N[C@]1(C(=O)SCC(NC(=O)CCC(N)C(=O)O)C(=O)NCC(=O)O)[C@@H](O)[C@@H]1C=CCCC1 (some centres unmarked) [Compound I-48]
stability in solution [1]: unstable in solution

CC(C)C[C@H](NC(=O)[C@H](Cc1ccccc1)NC(=O)c1cnccn1)B(O)O [bortezomib, Bortezomib, reference compound]
FN-induced p65 phosphorylation and p50NF-κB expression [2]: inhibited | reduction of the C-L activity [3]: 29% | responses in WM [4]: 40-80% | reduction of the T-L activity [5]: 5% | IL-6-triggered Akt and STAT-3 phosphorylation [6]: inhibited IL-6-triggered Akt and STAT-3 phosphorylation | IL-6-induced proliferation of BCWM.1 cells [7]: inhibited IL-6-induced proliferation of BCWM.1 cells | reduction of the CT-L activity [8]: 69% | Akt kinase activity (phosphorylation of GSK3α/β fusion protein) [9]: did not modulate Akt phosphorylation | homing of WM cells to the bone marrow [10]: Neither salinosporamide A nor bortezomib used as single agents significantly inhibited homing | caspases-3, 8 and 9 cleavage ([11]; 12 hours): induced-9 and -3 cleavage

C[C@@]12OC(=O)[C@]1([C@@H](O)[C@@H]1C=CCCC1)NC(=O)[C@@H]2CCCl [salinosporamide A]
cytotoxic effect in the absence of Akt [12]: abrogated | cytotoxic effect on PBMCs [13]: no cytotoxic effect | FN-induced p65 phosphorylation and p50NF-κB expression [2]: inhibited | reduction of the C-L activity [3]: 34.3% | phosphorylation of Akt (ser473), GSK3α/β and ribosomal protein S6 [14]: inhibited phosphorylation of Akt (ser473), and downstream GSK3α/β and ribosomal protein S6 in a dose dependent manner | phosphorylation of ERK1/2 (thr202/tyr204) [14]: no activity on the phosphorylation of the MAP kinase ERK1/2 | reduction of the T-L activity [5]: 38.7% | IL-6-triggered Akt and STAT-3 phosphorylation [6]: inhibited IL-6-triggered Akt and STAT-3 phosphorylation | IC50 [15]: 20 to 30 nM | IL-6-induced proliferation of BCWM.1 cells [7]: inhibited IL-6-induced proliferation of BCWM.1 cells | IC50 ([16]; BCWM1, 48 h, read-out: IC50, decreased survival (MTT)): 18 nM | cytotoxicity, % of BCWM.1 cells (MTT) ([16]; human): 12.4% | IC50 [17]: 30 to 40 nM | WM cells migration towards SDF-1 [18]: slightly inhibited | viability of BMSCs (MTT) [19]: not affected | percentage of apoptotic BCWM.1 cells ([20]; 5 nM): 21.2% | percentage of apoptotic BCWM.1 cells ([20]; 20 nM): 40% | IC50 [21]: 15 nM | BMSC-triggered increase in proliferation of BCWM.1 cells [22]: inhibited by salinosporamide A in a dose-dependent manner | reduction of the CT-L activity [8]: 81% | growth of BM hematopoietic progenitor cells (colony formation) [23]: did not affect the growth of BM hematopoietic progenitor cells | Akt kinase activity (phosphorylation of GSK3α/β fusion protein) [9]: decreased phosphorylation of GSK3α/β fusion protein | homing of WM cells to the bone marrow [10]: Neither salinosporamide A nor bortezomib used as single agents significantly inhibited homing | TNF-α induced NF-κB recruitment to the nucleus (NF-κBp65 DNA binding) [24]: inhibited by salinosporamide A more than bortezomib | IC50 [25]: 20 to 30 nM | Mcl-1 expression ([11]; 2.5-20 nM, 12 hours): induced down-modulation of the anti-apoptotic protein Mcl-1 | XIAP expression ([11]; 2.5-20 nM, 12 hours): down-regulated the expression of XIAP in a dose-dependent manner | caspase-8 and PARP cleavage ([11]; 2.5-20 nM, 12 hours): induced caspase-8 and PARP cleavage in a dose-dependent manner | caspase-3 and -9 ([11]; 2.5-20 nM, data not shown): without affecting caspase-3 and -9 | caspases-3, 8 and 9 cleavage ([11]; 12 hours): induced mild capsase-8 cleavage without affecting caspase-3 and 9 cleavage
